The source of these data is ChEMBL document CHEMBL4414609, “High-Affinity Alkynyl Bisubstrate Inhibitors of Nicotinamide N-Methyltransferase (NNMT)” (J Med Chem, 2019).

In data set [1] the target is T1, Nicotinamide N-methyltransferase (Homo sapiens, UniProt P40261).
T1 sequence (P40261 whole entry): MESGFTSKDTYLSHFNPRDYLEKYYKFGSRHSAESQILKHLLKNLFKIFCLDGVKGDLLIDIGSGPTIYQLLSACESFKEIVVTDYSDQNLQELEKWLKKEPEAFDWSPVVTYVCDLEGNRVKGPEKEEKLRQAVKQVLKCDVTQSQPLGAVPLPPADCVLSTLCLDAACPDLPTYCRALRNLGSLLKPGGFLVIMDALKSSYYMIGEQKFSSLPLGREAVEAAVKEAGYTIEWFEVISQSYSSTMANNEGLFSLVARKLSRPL
The data set is described as follows: Inhibition of N-terminal His6-tagged wild type human NNMT expressed in Escherichia coli NiCo21(DE3) assessed as reduction in 1-methylquinolinium level using quinoline as substrate in presence of SAM and measured every 27 seconds for 5.5 mins by fluorescence-based assay.

Data set [2] addresses INMT (indolethylamine N-methyltransferase) (Homo sapiens, UniProt O95050). The data set is described as follows: Inhibition of wild type human INMT expressed in Escherichia coli at 10 uM using tryptamine as substrate in presence of SAM incubated for 30 mins by MTase-Glo assay relative to control. Conditions: probe tryptamine.
For data set [3], the target named is T2, COMT (catechol O-methyltransferase) (Homo sapiens, UniProt P21964).
T2 sequence (P21964 whole entry): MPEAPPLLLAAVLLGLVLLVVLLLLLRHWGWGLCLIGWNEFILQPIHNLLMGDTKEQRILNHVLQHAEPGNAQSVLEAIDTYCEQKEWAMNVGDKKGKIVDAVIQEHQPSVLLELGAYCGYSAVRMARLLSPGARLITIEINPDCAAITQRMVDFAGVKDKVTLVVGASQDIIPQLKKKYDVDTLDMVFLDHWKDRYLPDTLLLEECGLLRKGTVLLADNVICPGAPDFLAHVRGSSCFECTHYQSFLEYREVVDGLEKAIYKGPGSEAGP
The data set is described as follows: Inhibition of human COMT expressed in Escherichia coli at 1 uM assessed as reduction in SAH level using pyrocatechol as substrate in presence of SAM incubated for 15 mins by LC-MS/MS analysis relative to control. Particulars: recombinant human COMT expressed in Escherichia coli, probe pyrocatechol.

Data set [4] addresses T3, GNMT (glycine N-methyltransferase) (Homo sapiens, UniProt Q14749).
T3 sequence (Q14749 whole entry): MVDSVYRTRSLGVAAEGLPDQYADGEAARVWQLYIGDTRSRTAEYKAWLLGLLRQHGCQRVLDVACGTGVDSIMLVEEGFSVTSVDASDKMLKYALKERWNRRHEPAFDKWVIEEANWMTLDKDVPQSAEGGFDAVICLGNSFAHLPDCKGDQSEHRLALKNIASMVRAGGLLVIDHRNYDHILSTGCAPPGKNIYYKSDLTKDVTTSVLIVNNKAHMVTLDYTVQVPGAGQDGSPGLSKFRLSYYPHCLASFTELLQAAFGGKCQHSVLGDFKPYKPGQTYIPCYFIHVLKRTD
The data set can be described thus: Inhibition of human GNMT expressed in Escherichia coli at 1 uM assessed as reduction in SAH level using glycine as substrate in presence of SAM incubated for 30 mins by LC-MS/MS analysis relative to control. Conditions: recombinant human GNMT expressed in Escherichia coli, probe glycine.

Data set [5] addresses T4, PNMT (phenylethanolamine N-methyltransferase) (Homo sapiens, UniProt P11086).
T4 sequence (P11086 whole entry): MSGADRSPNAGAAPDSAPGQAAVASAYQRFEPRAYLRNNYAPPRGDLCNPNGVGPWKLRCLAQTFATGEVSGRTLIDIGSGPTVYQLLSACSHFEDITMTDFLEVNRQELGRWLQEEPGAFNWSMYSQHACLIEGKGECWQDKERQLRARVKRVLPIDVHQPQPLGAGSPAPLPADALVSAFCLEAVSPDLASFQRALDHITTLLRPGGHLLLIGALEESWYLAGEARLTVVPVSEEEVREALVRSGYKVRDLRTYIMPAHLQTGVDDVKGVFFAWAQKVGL
The data set is described as follows: Inhibition of human PNMT expressed in Escherichia coli at 1 uM assessed as reduction in SAH level using DL-normetanephrine as substrate in presence of SAM incubated for 45 mins by LC-MS/MS analysis relative to control. Particulars: recombinant human PNMT expressed in Escherichia coli, probe DL-normetanephrine.

The target in data set [6] is T2, COMT (catechol O-methyltransferase). The data set can be described thus: Inhibition of human COMT expressed in Escherichia coli at 10 uM assessed as reduction in SAH level using pyrocatechol as substrate in presence of SAM incubated for 15 mins by LC-MS/MS analysis relative to control. Particulars: recombinant human COMT expressed in Escherichia coli, probe pyrocatechol.

In data set [7] the target is Histone-lysine N-methyltransferase, H3 lysine-79 specific (Homo sapiens, UniProt Q8TEK3). The data set is described as follows: Inhibition of human DOT1L expressed in Escherichia coli assessed as reduction in methylated polynucleosome level using polynucleosome as substrate in presence of [3H] SAM incubated for 15 mins by scintillation counting.
Data set [8] has as its target T4, PNMT (phenylethanolamine N-methyltransferase). The data set is described as follows: Inhibition of human PNMT expressed in Escherichia coli at 10 uM assessed as reduction in SAH level using DL-normetanephrine as substrate in presence of SAM incubated for 45 mins by LC-MS/MS analysis relative to control. Conditions: recombinant human PNMT expressed in Escherichia coli, probe DL-normetanephrine.

Data set [9] can be described thus: Permeability across apical to basolateral side in human Caco2 cells after 60 mins by HPLC-MS/MS analysis. It counts as ADME, cell-based. Particulars: caco-2, 1 h.
The test system of another data set is U2OS. The data set can be described thus: Cytotoxicity against human U2OS cells at 100 uM after 48 hrs by CellTiter-Glo luminescent cell viability. It counts as cell-based. (In general: In ATP-based viability assays light output follows the ATP content of the culture.)
The target in data set [10] is HNMT (histamine N-methyltransferase) (Homo sapiens, UniProt P50135). The data set can be described thus: Inhibition of human HNMT expressed in Escherichia coli at 1 uM assessed as reduction in SAH level using histamine as substrate in presence of SAM incubated for 15 mins by LC-MS/MS analysis relative to control. Conditions: recombinant human HNMT expressed in Escherichia coli, probe histamine.

Data set [11] concerns the target Protein arginine N-methyltransferase 1 (Homo sapiens, UniProt Q99873). The data set is described as follows: Inhibition of human PRMT1 expressed in Escherichia coli assessed as reduction in methylated histone H4 full length level using histone H4 full length as substrate in presence of [3H] SAM incubated for 20 mins by scintillation counting.
For data set [12], the target named is Histone-lysine N-methyltransferase ASH1L (Homo sapiens, UniProt Q9NR48). The data set can be described thus: Inhibition of human ASH1L expressed in Escherichia coli assessed as reduction in methylated polynucleosome level using polynucleosome as substrate in presence of [3H] SAM incubated for 15 mins by scintillation counting.
For data set [13], the target named is T5, TPMT (thiopurine S-methyltransferase) (Homo sapiens, UniProt P51580).
T5 sequence (P51580 whole entry): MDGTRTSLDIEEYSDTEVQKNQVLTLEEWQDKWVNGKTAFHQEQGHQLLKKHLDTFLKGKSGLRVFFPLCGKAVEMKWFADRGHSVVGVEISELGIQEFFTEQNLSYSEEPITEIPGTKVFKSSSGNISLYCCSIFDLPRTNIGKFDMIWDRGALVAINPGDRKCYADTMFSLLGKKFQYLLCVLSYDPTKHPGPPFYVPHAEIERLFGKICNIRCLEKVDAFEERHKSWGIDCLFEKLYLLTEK
The data set is described as follows: Inhibition of human TPMT expressed in Escherichia coli assessed as reduction in SAH level at 1 uM using 6-mercaptopurine as substrate in presence of SAM incubated for 30 mins by LC-MS/MS analysis relative to control. Conditions: recombinant human TPMT expressed in Escherichia coli, probe 6-mercaptopurine.

A word on the inhibition: it is the relative decrease from the control value, in per cent. One may read the IC50 as the midpoint of a concentration-inhibition curve.

Chain of Histone-lysine N-methyltransferase, H3 lysine-79 specific (Q8TEK3 whole entry): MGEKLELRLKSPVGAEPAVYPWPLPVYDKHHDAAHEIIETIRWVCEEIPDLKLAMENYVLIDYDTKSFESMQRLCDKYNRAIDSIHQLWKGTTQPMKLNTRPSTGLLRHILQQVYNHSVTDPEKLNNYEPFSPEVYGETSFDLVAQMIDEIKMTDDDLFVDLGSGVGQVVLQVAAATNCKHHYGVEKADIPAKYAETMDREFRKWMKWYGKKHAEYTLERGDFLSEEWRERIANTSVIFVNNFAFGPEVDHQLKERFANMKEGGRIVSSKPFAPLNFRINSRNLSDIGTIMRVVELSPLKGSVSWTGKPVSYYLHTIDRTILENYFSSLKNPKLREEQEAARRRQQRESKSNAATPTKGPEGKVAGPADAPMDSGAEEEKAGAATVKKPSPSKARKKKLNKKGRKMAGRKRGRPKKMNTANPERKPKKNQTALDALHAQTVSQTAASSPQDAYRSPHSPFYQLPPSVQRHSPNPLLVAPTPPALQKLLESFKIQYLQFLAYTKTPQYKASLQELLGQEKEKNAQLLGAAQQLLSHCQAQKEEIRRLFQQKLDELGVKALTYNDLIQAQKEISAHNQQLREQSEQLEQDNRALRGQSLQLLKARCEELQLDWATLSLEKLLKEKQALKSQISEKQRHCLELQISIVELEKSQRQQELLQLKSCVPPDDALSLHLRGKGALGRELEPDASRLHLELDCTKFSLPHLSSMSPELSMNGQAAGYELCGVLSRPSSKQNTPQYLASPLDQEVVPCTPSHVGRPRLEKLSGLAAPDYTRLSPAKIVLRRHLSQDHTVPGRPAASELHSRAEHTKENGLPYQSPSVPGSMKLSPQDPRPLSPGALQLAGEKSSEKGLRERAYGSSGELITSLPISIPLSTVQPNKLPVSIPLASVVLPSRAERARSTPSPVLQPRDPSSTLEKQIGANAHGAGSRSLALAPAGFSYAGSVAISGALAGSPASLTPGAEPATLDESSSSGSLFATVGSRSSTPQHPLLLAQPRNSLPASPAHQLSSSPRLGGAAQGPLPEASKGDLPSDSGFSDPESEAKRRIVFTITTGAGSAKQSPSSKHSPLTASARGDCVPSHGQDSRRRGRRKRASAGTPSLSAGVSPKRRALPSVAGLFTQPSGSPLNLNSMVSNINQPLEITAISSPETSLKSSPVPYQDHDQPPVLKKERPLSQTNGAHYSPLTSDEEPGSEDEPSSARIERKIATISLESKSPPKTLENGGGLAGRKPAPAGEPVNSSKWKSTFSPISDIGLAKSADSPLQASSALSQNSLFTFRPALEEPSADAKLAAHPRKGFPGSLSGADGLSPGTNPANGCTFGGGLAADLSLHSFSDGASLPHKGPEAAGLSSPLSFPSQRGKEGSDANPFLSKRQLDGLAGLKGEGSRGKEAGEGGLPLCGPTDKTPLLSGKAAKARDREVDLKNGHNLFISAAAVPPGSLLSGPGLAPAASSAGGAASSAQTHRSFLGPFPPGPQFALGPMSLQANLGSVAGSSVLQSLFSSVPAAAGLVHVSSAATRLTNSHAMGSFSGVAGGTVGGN
Chain of HNMT (histamine N-methyltransferase) (P50135 whole entry): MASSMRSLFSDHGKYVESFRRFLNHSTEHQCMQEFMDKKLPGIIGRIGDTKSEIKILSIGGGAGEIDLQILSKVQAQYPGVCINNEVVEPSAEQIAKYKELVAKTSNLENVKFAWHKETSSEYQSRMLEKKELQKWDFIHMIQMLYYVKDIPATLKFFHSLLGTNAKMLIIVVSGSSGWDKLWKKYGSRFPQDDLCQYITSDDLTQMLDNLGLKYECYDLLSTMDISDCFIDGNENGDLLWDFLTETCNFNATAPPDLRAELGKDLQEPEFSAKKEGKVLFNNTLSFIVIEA
Chain of INMT (indolethylamine N-methyltransferase) (O95050 whole entry): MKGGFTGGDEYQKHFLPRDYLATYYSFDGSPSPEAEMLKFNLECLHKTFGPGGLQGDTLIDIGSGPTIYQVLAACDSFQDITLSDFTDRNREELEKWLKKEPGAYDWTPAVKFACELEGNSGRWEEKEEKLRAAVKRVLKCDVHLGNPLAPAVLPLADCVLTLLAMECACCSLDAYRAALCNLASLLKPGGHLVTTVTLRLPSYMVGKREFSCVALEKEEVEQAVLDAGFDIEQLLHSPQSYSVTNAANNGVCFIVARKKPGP
Chain of Protein arginine N-methyltransferase 1 (Q99873 whole entry): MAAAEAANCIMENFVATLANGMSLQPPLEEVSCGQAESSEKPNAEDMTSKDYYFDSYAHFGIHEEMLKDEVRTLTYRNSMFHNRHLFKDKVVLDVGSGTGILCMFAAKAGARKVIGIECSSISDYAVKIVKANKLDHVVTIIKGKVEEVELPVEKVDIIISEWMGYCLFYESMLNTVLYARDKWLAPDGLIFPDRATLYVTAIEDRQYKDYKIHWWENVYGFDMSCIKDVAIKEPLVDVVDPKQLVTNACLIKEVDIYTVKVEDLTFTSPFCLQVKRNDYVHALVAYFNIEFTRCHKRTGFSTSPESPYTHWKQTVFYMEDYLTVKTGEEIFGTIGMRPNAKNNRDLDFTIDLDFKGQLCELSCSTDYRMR

Consider `NC(=O)c1cccc(C#C[C@@H](CC[C@H](N)C(=O)O)C[C@H]2O[C@@H](n3cnc4c(N)ncnc43)[C@H](O)[C@@H]2O)c1`, for which the Ki is 0.5 nM in data set [1] (read-out: Ki) and 0.501 nM in data set [1] (read-out: pKi (converted)). Besides, the inhibition at 0.5 h, 10 µM in [2] came to 53%. Moreover, the inhibition at 0.25 h, 1 µM in data set [3] came to 0%; in [10] it was 6%. In addition, the inhibition at 0.5 h, 1 µM in data set [4] amounted to 4%; in data set [13], 51%. Moreover, in [5], the inhibition at 0.75 h, 1 µM was determined as 0%. In data set [6], the inhibition at 0.25 h, 10 µM was 43%. In addition, the IC50 in [7], in [11] and in [12] was greater than 10000 nM each time. Also, in data set [8], the inhibition at 0.75 h, 10 µM came out at 26%. For the same compound, the permeability entry in [9] is given as “Impermeable”. In addition, the Activity result with U2OS is listed as “Non-Toxic”.
